# Laboratory results: patent US11384099B2, “Pyrazolopyridinone compounds” (Janssen Pharmaceutica NV, priority 2017, dated 2022)
# Key:
# [1] = tested on: NIH/3T3 cells transfected with control vector (MOCK); experiment: NIH/3T3 mock cell proliferation assay (CTG, counter assay); format: cell-based; settings: Mus musculus, NIH3T3; 72-hr incubation, CellTiter Glo; counter assay for general toxicity
# Description: NIH/3T3 Mock Cell Proliferation Assay
# (§1) In day 1, 90 μL of cell suspension (NIH/3T3 cells transfected with the same control vector as in the above two proliferation assays) (total 30,000 cells per well in growth medium (DMEM containing 1% Glutamax, 10% FBS and 1% Pen/Strep)) was seeded in a 96-well plate and then incubated overnight at 37° C. and 5% CO2. In day 2, 10 μL of growth medium containing 10-fold stock solution of testing compound was added into cell cultures (9 dose points with 3× serial dilution, starting with 30 μM, 0.3% DMSO final). After 72-hr incubation at 37° C. and 5% CO2, in day 5 a volume of 50 μL CellTiter Glo (CTG) reagent was added into cell-containing 96-well plate and the plate was incubated at room temperature for 10 minutes before RLUs (relative light unit) were measured on a microplate reader with luminescence detection module. The RLU value was normalized to survival % and concentration-response curve was plotted using Prism to calculate IC50 (M), pIC50 (−log IC50) and HillSlope value.
# [2] = tested on: NIH/3T3 cells overexpressing FGFR3 WT-TACC3 fusion protein; experiment: NIH/3T3 FGFR3 WT-TACC3 cellular phospho-ERK assay (in vitro PD assay); format: cell-based; settings: Mus musculus, NIH3T3; 1-hr incubation, AlphaLISA SureFire Ultra p-ERK1/2; read-out: NIH/3T3 FGFR3 WT-TACC3 pERK (IC50)
# Description: NIH/3T3 FGFR3 WT-TACC3 Cellular Phospho-ERK Assay (In Vitro PD Assay)
# (§2) 50 uL of cell suspension (NIH/3T3 cells overexpressing FGFR3 WT-TACC3 fusion protein) (total 10,000 cells per well in growth medium (DMEM containing 1% Glutamax, 10% FBS and 1% Pen/Strep)) was seeded in a 384-well plate. After overnight incubation at 37° C. and 5% CO2, 5.5 μL of growth medium containing 10× testing compound was added into cell cultures (10 dose points with 4× serial dilution, starting with 10 μM, 0.1% DMSO final). After 1-hr incubation at 37° C. and 5% CO2, the medium was depleted and AlphaLISA SureFire Ultra p-ERK1/2 (Thr202/Tyr204) Assay Kit (from PerkinElmer) was applied for phospho-ERK level detection according to the kit instructions. The RFUs (relative fluorescence units were measured on EnVision microplate reader (ex. 680 nm, em. 615 nm) and concentration-response curve was plotted using Prism to calculate IC50 (M), pIC50 (−log IC50) and HillSlope value.
# [3] = tested on: NIH/3T3 cells overexpressing FGFR3 V555M-TACC3 fusion protein; experiment: NIH/3T3 FGFR3 V555M-TACC3 cellular phospho-ERK assay (in vitro PD assay); format: cell-based; settings: Mus musculus, NIH3T3; 1-hr incubation, AlphaLISA SureFire Ultra p-ERK1/2; read-out: NIH/3T3 FGFR3 V555M-TACC3 pERK (IC50)
# Description: NIH/3T3 FGFR3 V555M-TACC3 Cellular Phospho-ERK Assay (In Vitro PD Assay)
# as §2, with “μL” for “uL”, “V555M-TACC3” for “WT-TACC3”
# [4] = molecular target: T1, human FGFR3 wild type enzyme (cytoplasmic domain) (Homo sapiens, UniProt P22607); experiment: FGFR3 wild type mobility shift assay (enzymatic assay, Caliper); format: biochemical; settings: 75 μM ATP, 50 minutes at 30° C.
# T1 construct: human FGFR3 wild type enzyme (cytoplasmic domain, from Cama Biosciences); purchased Carna Biosciences
# T1 sequence (P22607 397-806 limits assumed): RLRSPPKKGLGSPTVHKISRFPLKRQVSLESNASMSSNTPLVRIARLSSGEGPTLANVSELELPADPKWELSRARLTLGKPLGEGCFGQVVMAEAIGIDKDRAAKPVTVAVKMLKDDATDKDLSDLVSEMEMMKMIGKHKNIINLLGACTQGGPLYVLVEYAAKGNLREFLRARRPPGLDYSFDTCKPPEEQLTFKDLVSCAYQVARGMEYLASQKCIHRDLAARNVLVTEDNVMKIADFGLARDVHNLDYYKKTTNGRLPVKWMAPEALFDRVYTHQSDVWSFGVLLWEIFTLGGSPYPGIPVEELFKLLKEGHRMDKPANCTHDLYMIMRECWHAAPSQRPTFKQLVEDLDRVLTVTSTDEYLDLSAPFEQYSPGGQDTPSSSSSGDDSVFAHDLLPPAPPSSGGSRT
# Description: FGFR3 Wild Type Mobility Shift Assay (Enzymatic Assay)
# (§3) In a final reaction volume of 25 μL, 0.04 ng/μL human FGFR3 wild type enzyme (cytoplasmic domain, from Cama Biosciences) was incubated with 75 μM ATP, 1 μM FL-peptide 30 substrate and 250 nL of testing compound (1% DMSO final) in assay buffer (100 mM HEPES pH 7.4, 10 mM MgCl2, 0.003% Brij35, 1 mM DTT). After incubation for 50 minutes at 30° C. the reaction was stopped with 10 μL of 0.5M EDTA pH 8.0, and then L of reaction mixture was transferred to reading plate and measured on Caliper EZ reader II.
# [5] = molecular target: T2, human FGFR3 V555M enzyme (cytoplasmic domain carrying V555M mutation) (Homo sapiens, UniProt P22607, V555M); experiment: FGFR3 V555M mobility shift assay (enzymatic assay, Caliper); format: biochemical; settings: 30 μM ATP, 45 minutes at 30° C.
# T2 construct: cytoplasmic domain carrying V555M mutation, from Carna Biosciences; purchased Carna Biosciences
# T2 sequence (P22607 397-806 V555M limits assumed): as the sequence (P22607 397-806 limits assumed) above, with V159M counted along it
# Description: FGFR3 V555M Mobility Shift Assay (Enzymatic Assay)
# as §3, with “FGFR3 V555M” for “FGFR3 wild type”, “(cytoplasmic domain carrying V555M mutation,” for “(cytoplasmic domain,”, “from Carna” for “from Cama”, “with 30” for “with 75”, “for 45” for “for 50”
# [6] = molecular target: T3, NIH/3T3 cells overexpressing FGFR3 WT-TACC3 fusion protein (Homo sapiens, UniProt P22607); experiment: NIH/3T3 FGFR3 WT-TACC3 cell proliferation assay (CTG); format: cell-based; settings: 72-hr incubation, CellTiter Glo; read-out: NIH/3T3 FGFR3 WT-TACC3 CTG (IC50)
# T3 construct: NIH/3T3 FGFR3 WT-TACC3 CTG (IC50); other: 72-hr incubation, CellTiter Glo; fused on or other part: C-terminal coiled-coil part of TACC3 (part of the key, as a fusion known from patients); Q9Y6A5 (Transforming acidic coiled-coil-containing protein 3)
# T3 sequence (P22607 whole entry, change not shown, the tested form may be a part): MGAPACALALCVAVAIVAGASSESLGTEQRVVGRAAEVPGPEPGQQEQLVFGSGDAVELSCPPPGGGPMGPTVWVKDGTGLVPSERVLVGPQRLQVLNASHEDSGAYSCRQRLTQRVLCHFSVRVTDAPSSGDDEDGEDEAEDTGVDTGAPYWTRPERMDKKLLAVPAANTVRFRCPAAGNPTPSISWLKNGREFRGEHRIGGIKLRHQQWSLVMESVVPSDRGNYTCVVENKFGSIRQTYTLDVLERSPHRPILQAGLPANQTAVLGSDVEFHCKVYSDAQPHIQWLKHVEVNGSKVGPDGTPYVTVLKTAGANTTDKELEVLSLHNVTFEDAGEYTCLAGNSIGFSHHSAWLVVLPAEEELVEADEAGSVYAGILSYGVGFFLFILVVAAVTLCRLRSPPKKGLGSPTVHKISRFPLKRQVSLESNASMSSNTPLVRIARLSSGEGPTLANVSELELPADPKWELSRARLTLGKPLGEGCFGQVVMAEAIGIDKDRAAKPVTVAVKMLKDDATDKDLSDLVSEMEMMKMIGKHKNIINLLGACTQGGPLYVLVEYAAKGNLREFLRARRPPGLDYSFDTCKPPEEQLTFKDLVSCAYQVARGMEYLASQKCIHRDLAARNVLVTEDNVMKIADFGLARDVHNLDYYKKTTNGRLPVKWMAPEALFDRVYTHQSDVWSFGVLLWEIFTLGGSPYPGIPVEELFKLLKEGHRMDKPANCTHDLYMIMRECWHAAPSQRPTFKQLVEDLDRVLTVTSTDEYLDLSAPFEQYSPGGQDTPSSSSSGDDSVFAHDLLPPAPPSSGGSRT
# Description: NIH/3T3 FGFR3 WT-TACC3 Cell Proliferation Assay
# as §1, with “cells overexpressing FGFR3 WT-TACC3 fusion protein)” for “cells transfected with the same control vector as in the above two proliferation assays)”, “with 4×” for “with 3×”, “with 10” for “with 30”, “μM, 0.1%” for “μM, 0.3%”
SMILES,IC50 [1] [nM],IC50 [2] [nM],IC50 [3] [nM],IC50 [4] [nM],IC50 [5] [nM],GI50 [6] [nM]
"COc1ccc2nc(-c3c(N[C@@H](C)c4ncccn4)c4nn(C)cc4[nH]c3=O)[nH]c2c1 (single isomer, unassigned) [Compound 1, (S*)-6-(6-Methoxy-1H-benzo[d]imidazol-2-yl)-2-methyl-7-((1-(pyrimidin-2-yl)ethyl)-amino)-2H-pyrazolo[4,3-b]pyridin-5 (4H)-one]",987,3.2,3.05,–,–,–
"CCC(Nc1c(-c2nc3cc(OC)c(OC)cc3[nH]2)c(=O)[nH]c2cn(C)nc12)c1ncccn1 (single isomer, unassigned) [Compound 42, (S*)-6-(5,6-dimethoxy-1H-benzo[d]imidazol-2-yl)-2-methyl-7-((1-(pyrimidin-2-yl)-propyl)amino)-2H-pyrazolo[4,3-b]pyridin-5 (4H)-one]",591,–,–,2.16,0.407,12.5
"CCOc1cc2[nH]c(-c3c(N[C@@H](C)c4ncccn4)c4nn(C)cc4[nH]c3=O)nc2cc1OC [Compound 7, (S)-6-(6-ethoxy-5-methoxy-1H-benzo[d]imidazol-2-yl)-2-methyl-7-((1-(pyrimidin-2-yl)ethyl)amino)-2,4-dihydro-5H-pyrazolo[4,3-b]pyridin-5-one]",713,3.64,2.79,0.327,0.183,–
"C[C@H](Nc1c(-c2nc3ccc(F)cc3[nH]2)c(=O)[nH]c2cn(C)nc12)c1ncccn1 [Compound 28, (S)-6-(6-Fluoro-1H-benzo[d]imidazol-2-yl)-2-methyl-7-((1-(pyrimidin-2-yl)ethyl)amino)-2H-pyrazolo[4,3-b]pyridin-5 (4H)-one]",2030,–,–,2.15,0.595,23.3
"CCn1cc2[nH]c(=O)c(-c3nc4c(OC)cc(OC)cc4[nH]3)c(N[C@@H](C)c3ncccn3)c2n1 [Compound 31, (S)-6-(4,6-dimethoxy-1H-benzo[d]imidazol-2-yl)-2-ethyl-7-((1-(pyrimidin-2-yl)ethyl)-amino)-2H-pyrazolo[4,3-b]pyridin-5 (4H)-one]",1940,–,–,6.21,1.78,34.4
"CCn1cc2[nH]c(=O)c(-c3nc4cc(OC)c(OCCOC)cc4[nH]3)c(N[C@@H](C)c3ncccn3)c2n1 [Compound 38, (S)-2-ethyl-6-(5-methoxy-6-(2-methoxyethoxy)-1H-benzo[d]imidazol-2-yl)-7-((1-(pyrimidin-2-yl)ethyl)amino)-2H-pyrazolo[4,3-b]pyridin-5 (4H)-one]",532,–,–,0.98,0.568,18.4
"CCOc1ccc2nc(-c3c(N[C@@H](C)c4ncccn4)c4nn(CC)cc4[nH]c3=O)[nH]c2c1 [Compound 50, (S)-6-(6-ethoxy-1H-benzo[d]imidazol-2-yl)-2-ethyl-7-((1-(pyrimidin-2-yl)ethyl)amino)-2,4-dihydro-5H-pyrazolo[4,3-b]pyridin-5-one]",1100,–,–,2.96,0.576,–
"CCn1cc2[nH]c(=O)c(-c3nc4cc(OC)c(OC)cc4[nH]3)c(N[C@@H](C)c3ccccn3)c2n1 [Compound 51, (S)-6-(5,6-dimethoxy-1H-benzo[d]imidazol-2-yl)-2-ethyl-7-((1-(pyridin-2-yl)ethyl)-amino)-2,4-dihydro-5H-pyrazolo[4,3-b]pyridin-5-one]",1130,–,–,4.43,0.613,30.2
"CCOc1cc2nc(-c3c(N[C@@H](C)c4ncccn4)c4nn(CC)cc4[nH]c3=O)[nH]c2cc1OCC [Compound 52, (S)-6-(5,6-diethoxy-1H-benzo[d]imidazol-2-yl)-2-ethyl-7-((1-(pyrimidin-2-yl)ethyl)-amino)-2H-pyrazolo[4,3-b]pyridin-5 (4H)-one]",653,5.66,6.67,0.853,0.281,–
"CCOc1cc2nc(-c3c(N[C@@H](C)c4ncccn4)c4nn(C)cc4[nH]c3=O)[nH]c2cc1OCC [Compound 53, (S)-6-(5,6-diethoxy-1H-benzo[d]imidazol-2-yl)-2-methyl-7-((1-(pyrimidin-2-yl)ethyl)-amino)-2,4-dihydro-5H-pyrazolo[4,3-b]pyridin-5-one]",535,–,–,0.554,0.298,–
"CCn1cc2[nH]c(=O)c(-c3nc4ccc(OCCOC)cc4[nH]3)c(N[C@@H](C)c3ncccn3)c2n1 [Compound 54, (S)-2-ethyl-6-(6-(2-methoxyethoxy)-1H-benzo[d]imidazol-2-yl)-7-((1-(pyrimidin-2-yl)-ethyl)amino)-2H-pyrazolo[4,3-b]pyridin-5 (4H)-one]",689,–,–,1.64,0.562,–
"COc1cc2nc(-c3c(N[C@@H](C)c4ccccn4)c4nn(C)cc4[nH]c3=O)[nH]c2cc1OC [Compound 56, (S)-6-(5,6-dimethoxy-1H-benzo[d]imidazol-2-yl)-2-methyl-7-((1-(pyridin-2-yl)ethyl)-amino)-2H-pyrazolo[4,3-b]pyridin-5 (4H)-one]",857,7.92,5.16,1.56,0.296,–
